Laboratory results reported in PubChem BioAssay AID1259407 (Chemical Carcinogenesis Research Information System (CCRIS), 2018).
Activity calls are given as the source filed them. The rule behind the calls is not given here.

System: CCRIS mutagenicity, Ames/micronucleus/aberration tests
Experiment: CCRIS mutagenicity studies
[1] = Test System: AMES SALMONELLA TYPHIMURIUM, Strain/Indicator: TA98, Metabolic Activation: NONE, Method: STANDARD PLATE
[2] = Test System: AMES SALMONELLA TYPHIMURIUM, Strain/Indicator: TA98, Metabolic Activation: RAT, LIVER, S-9, AROCLOR 1254, Method: STANDARD PLATE
[3] = Test System: AMES SALMONELLA TYPHIMURIUM, Strain/Indicator: TA100, Metabolic Activation: NONE, Method: STANDARD PLATE
[4] = Test System: AMES SALMONELLA TYPHIMURIUM, Strain/Indicator: TA100, Metabolic Activation: RAT, LIVER, S-9, AROCLOR 1254, Method: STANDARD PLATE
[5] = Test System: AMES SALMONELLA TYPHIMURIUM, Strain/Indicator: TA1537, Metabolic Activation: NONE, Method: STANDARD PLATE
[6] = Test System: AMES SALMONELLA TYPHIMURIUM, Strain/Indicator: TA1537, Metabolic Activation: RAT, LIVER, S-9, AROCLOR 1254, Method: STANDARD PLATE

Measured: mutagenic call

CCCCCCc1ccc(-c2ccc(C#N)cc2)cc1
inactive: Test System: AMES SALMONELLA TYPHIMURIUM, Strain/Indicator: TA97, Metabolic Activation: HAMSTER, LIVER, S-9, AROCLOR 1254 (10 OR 30%), Method: PREINCUBATION inactive; negative | Test System: AMES SALMONELLA TYPHIMURIUM, Strain/Indicator: TA97, Metabolic Activation: NONE, Method: PREINCUBATION inactive; negative | Test System: AMES SALMONELLA TYPHIMURIUM, Strain/Indicator: TA97, Metabolic Activation: RAT, LIVER, S-9, AROCLOR 1254 (10 OR 30%), Method: PREINCUBATION inactive; negative | Test System: AMES SALMONELLA TYPHIMURIUM, Strain/Indicator: TA98, Metabolic Activation: HAMSTER, LIVER, S-9, AROCLOR 1254 (10 OR 30%), Method: PREINCUBATION inactive; negative | Test System: AMES SALMONELLA TYPHIMURIUM, Strain/Indicator: TA98, Metabolic Activation: NONE, Method: PREINCUBATION inactive; negative | Test System: AMES SALMONELLA TYPHIMURIUM, Strain/Indicator: TA98, Metabolic Activation: RAT, LIVER, S-9, AROCLOR 1254 (10 OR 30%), Method: PREINCUBATION inactive; negative | Test System: AMES SALMONELLA TYPHIMURIUM, Strain/Indicator: TA100, Metabolic Activation: HAMSTER, LIVER, S-9, AROCLOR 1254 (10 OR 30%), Method: PREINCUBATION inactive; negative | Test System: AMES SALMONELLA TYPHIMURIUM, Strain/Indicator: TA100, Metabolic Activation: NONE, Method: PREINCUBATION inactive; negative | Test System: AMES SALMONELLA TYPHIMURIUM, Strain/Indicator: TA100, Metabolic Activation: RAT, LIVER, S-9, AROCLOR 1254 (10 OR 30%), Method: PREINCUBATION inactive; negative | Test System: AMES SALMONELLA TYPHIMURIUM, Strain/Indicator: TA1535, Metabolic Activation: HAMSTER, LIVER, S-9, AROCLOR 1254 (10 OR 30%), Method: PREINCUBATION inactive; negative | Test System: AMES SALMONELLA TYPHIMURIUM, Strain/Indicator: TA1535, Metabolic Activation: NONE, Method: PREINCUBATION inactive; negative | Test System: AMES SALMONELLA TYPHIMURIUM, Strain/Indicator: TA1535, Metabolic Activation: RAT, LIVER, S-9, AROCLOR 1254 (10 OR 30%), Method: PREINCUBATION inactive; negative | Test System: AMES SALMONELLA TYPHIMURIUM, Strain/Indicator: TA1537, Metabolic Activation: HAMSTER, LIVER, S-9, AROCLOR 1254 (10 OR 30%), Method: PREINCUBATION inactive; negative | Test System: AMES SALMONELLA TYPHIMURIUM, Strain/Indicator: TA1537, Metabolic Activation: NONE, Method: PREINCUBATION inactive; negative | Test System: AMES SALMONELLA TYPHIMURIUM, Strain/Indicator: TA1537, Metabolic Activation: RAT, LIVER, S-9, AROCLOR 1254 (10 OR 30%), Method: PREINCUBATION inactive; negative

Clc1cncc(Cl)c1
inactive: Test System: AMES SALMONELLA TYPHIMURIUM, Strain/Indicator: TA97, Metabolic Activation: NONE, Method: STANDARD PLATE inactive; negative | Test System: AMES SALMONELLA TYPHIMURIUM, Strain/Indicator: TA97, Metabolic Activation: RAT, LIVER, S-9, AROCLOR 1254, Method: STANDARD PLATE inactive; negative | [1] inactive; negative | [2] inactive; negative | [3] inactive; negative | [4] inactive; negative | Test System: AMES SALMONELLA TYPHIMURIUM, Strain/Indicator: TA102, Metabolic Activation: NONE, Method: STANDARD PLATE inactive; negative | Test System: AMES SALMONELLA TYPHIMURIUM, Strain/Indicator: TA102, Metabolic Activation: RAT, LIVER, S-9, AROCLOR 1254, Method: STANDARD PLATE inactive; negative

NNC(=O)CNc1ccc2ccccc2c1
inactive: [1] inactive; negative | [2] inactive; negative | [3] inactive; negative | [4] inactive; negative | [5] inactive; negative | [6] inactive; negative

CC[C@H]1OC(=O)[C@H](C)[C@@H](O[C@H]2C[C@@](C)(OC)[C@@H](O)[C@H](C)O2)[C@H](C)[C@@H](O[C@@H]2O[C@H](C)C[C@H](N(C)C)[C@H]2O)[C@](C)(O)C[C@@H](C)CN(C)[C@H](C)[C@@H](O)[C@]1(C)O
inactive: Test System: AMES SALMONELLA TYPHIMURIUM, Strain/Indicator: TA98, Metabolic Activation: MOUSE, LIVER, S-9, AROCLOR 1254, Method: STANDARD PLATE inactive; negative | Test System: AMES SALMONELLA TYPHIMURIUM, Strain/Indicator: TA98, Metabolic Activation: MOUSE, LIVER, S-9, Method: STANDARD PLATE inactive; negative | [1] inactive; negative | [2] inactive; negative | Test System: AMES SALMONELLA TYPHIMURIUM, Strain/Indicator: TA98, Metabolic Activation: RAT, LIVER, S-9, Method: STANDARD PLATE inactive; negative | Test System: AMES SALMONELLA TYPHIMURIUM, Strain/Indicator: TA100, Metabolic Activation: MOUSE, LIVER, S-9, AROCLOR 1254, Method: STANDARD PLATE inactive; negative | Test System: AMES SALMONELLA TYPHIMURIUM, Strain/Indicator: TA100, Metabolic Activation: MOUSE, LIVER, S-9, Method: STANDARD PLATE inactive; negative | [3] inactive; negative | [4] inactive; negative | Test System: AMES SALMONELLA TYPHIMURIUM, Strain/Indicator: TA100, Metabolic Activation: RAT, LIVER, S-9, Method: STANDARD PLATE inactive; negative | Test System: AMES SALMONELLA TYPHIMURIUM, Strain/Indicator: TA1535, Metabolic Activation: MOUSE, LIVER, S-9, AROCLOR 1254, Method: STANDARD PLATE inactive; negative | Test System: AMES SALMONELLA TYPHIMURIUM, Strain/Indicator: TA1535, Metabolic Activation: MOUSE, LIVER, S-9, Method: STANDARD PLATE inactive; negative | Test System: AMES SALMONELLA TYPHIMURIUM, Strain/Indicator: TA1535, Metabolic Activation: NONE, Method: STANDARD PLATE inactive; negative | Test System: AMES SALMONELLA TYPHIMURIUM, Strain/Indicator: TA1535, Metabolic Activation: RAT, LIVER, S-9, AROCLOR 1254, Method: STANDARD PLATE inactive; negative | Test System: AMES SALMONELLA TYPHIMURIUM, Strain/Indicator: TA1535, Metabolic Activation: RAT, LIVER, S-9, Method: STANDARD PLATE inactive; negative | Test System: AMES SALMONELLA TYPHIMURIUM, Strain/Indicator: TA1537, Metabolic Activation: MOUSE, LIVER, S-9, AROCLOR 1254, Method: STANDARD PLATE inactive; negative | Test System: AMES SALMONELLA TYPHIMURIUM, Strain/Indicator: TA1537, Metabolic Activation: MOUSE, LIVER, S-9, Method: STANDARD PLATE inactive; negative | [5] inactive; negative | [6] inactive; negative | Test System: AMES SALMONELLA TYPHIMURIUM, Strain/Indicator: TA1537, Metabolic Activation: RAT, LIVER, S-9, Method: STANDARD PLATE inactive; negative | Test System: MOUSE LYMPHOMA, Strain/Indicator: L5178Y (TK+/TK-), Metabolic Activation: NONE, Method: SUSPENSION/PLATE inactive; negative | Test System: MOUSE LYMPHOMA, Strain/Indicator: L5178Y (TK+/TK-), Metabolic Activation: RAT, LIVER, S-9, Method: SUSPENSION/PLATE inactive; negative
